Reference: patent publication US12558428B2, “Heterobifunctional compounds and their use in treating disease” (Halda Therapeutics OpCo, Inc., priority 2024, dated 2026)

What follows are compounds tested on MCF7 cells (ATCC #HTB-22) (assay: Cellular growth inhibition assay, MCF7 cells purchased from ATCC). Conditions: Homo sapiens, MCF7, 144 h, Table 8-A; MCF7 cells purchased from ATCC; six days; CellTiter-Glo; read-out: GI50.
Assay type: cell-based
Outline: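 MCF7 cells in RPMI 1640 with 10% FBS and 0.2 U/ml insulin, seeded at 1,500 cells/well (ATCC) or 225 cells/well (ECACC). Compounds added 24 h later, then 6 days at 37° C. Viability by CellTiter-Glo 2.0 luminescence. GI50 from four-parameter fit.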

How did the GI50 turn out when `Cc1sc2c(c1C)C(c1ccc(N3CCC(O)(CN4CCN(c5ccc([C@@H]6c7ccc(O)cc7CC[C@@H]6c6ccc(F)cc6)cc5Cl)CC4)CC3)cc1)=N[C@@H](C)c1nnc(C)n1-2` [III-302] was run?
The GI50 was 50 to 500 nM.

`Cc1sc2c(c1C)C(c1ccc(N3CCC(O)(CN4CCN(c5cc(F)c([C@H]6c7ccc(O)cc7CC[C@H]6c6ccccc6)cc5F)CC4)CC3)cc1F)=N[C@@H](C)c1nnc(C)n1-2` [III-303] was tested. Which GI50 did it give?
The GI50 was 50 to 500 nM.

`Cc1sc2c(c1C)C(c1ccc(N3CCC(O)(CN4CCN(c5cc(F)c([C@@H]6c7ccc(O)cc7CC[C@@H]6c6ccccc6)cc5F)CC4)CC3)cc1F)=N[C@@H](C)c1nnc(C)n1-2` [III-304] was tested. Which GI50 did it give?
Its GI50 is < 50 nM.

Which GI50 does the source give for `Cc1sc2c(c1C)C(c1ccc(N3CCC(O)(CN4CCN(c5ccc([C@@H]6c7ccc(O)cc7CC[C@@H]6c6ccc(F)cc6)c(Cl)c5)CC4)CC3)cc1)=N[C@@H](C)c1nnc(C)n1-2` [III-305] here?
The GI50 was < 50 nM.

For `Cc1sc2c(c1C)C(c1ccc(N3CCC(O)(CN4CCN(c5ccc([C@H]6c7ccc(O)cc7CC[C@H]6c6ccc(F)cc6)c(Cl)c5)CC4)CC3)cc1)=N[C@@H](C)c1nnc(C)n1-2` [III-306], which GI50 is on record?
Its GI50 is 50 to 500 nM.

Which GI50 does the source give for `COc1cc(N2CCN(CC3(O)CCN(c4ccc(C5=N[C@@H](C)c6nnc(C)n6-c6sc(C)c(C)c65)cc4)CC3)CC2)ccc1[C@H]1c2ccc(O)cc2CC[C@H]1c1cccc(F)c1` [III-309] here?
Its GI50 is 50 to 500 nM.

For `COc1cc(N2CCN(CC3(O)CCN(c4ccc(C5=N[C@@H](C)c6nnc(C)n6-c6sc(C)c(C)c65)cc4)CC3)CC2)ccc1[C@@H]1c2ccc(O)cc2CC[C@@H]1c1cccc(F)c1` [III-310], which GI50 is on record?
Its GI50 is < 50 nM.

Which GI50 does the source give for `Cc1sc2c(c1C)C(c1ccc(N3CCC(CN4CCN(c5cc(F)c([C@@H]6c7ccc(O)cc7CC[C@@H]6c6ccccc6)cc5F)CC4)CC3)cc1)=N[C@@H](C)c1nnc(C)n1-2` [III-317] here?
Its GI50 is 50 to 500 nM.

How did the GI50 turn out when `Cc1sc2c(c1C)C(c1ccc(N3CCC(CN4CCN(c5cc(F)c([C@H]6c7ccc(O)cc7CC[C@H]6c6ccccc6)cc5F)CC4)CC3)cc1)=N[C@@H](C)c1nnc(C)n1-2` [III-318] was run?
The GI50 was 50 to 500 nM.

Each compound was assayed on T-Rex 293 cells having increased expression of estrogen receptor alpha protein (assay: Cellular growth inhibition assay, T-Rex 293 cells, (+) doxycycline). Conditions: T-REx-293, 72 h, Table 7-A; T-Rex 293 cells with doxycycline (increased ERα expression); 72 hours; CellTiter-Glo; read-out: (+) Dox GI50.
Assay type: cell-based
Outline: (§1)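 ERα overexpression was switched on by 3 ng/mL doxycycline in a stably transfected T-Rex 293 clone, while uninduced cells served as the comparison line. Proliferation over 72 h of compound treatment was assessed by ATP luminescence, and GI50 values came from four-parameter curves.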

For `Cc1sc2c(c1C)C(c1ccc(N3CCC(O)(CN4CCN(c5ccc([C@@H]6c7ccc(O)cc7CC[C@@H]6c6ccc(F)cc6)cc5Cl)CC4)CC3)cc1)=N[C@@H](C)c1nnc(C)n1-2` [III-302], which GI50 is on record?
Its GI50 is 50 to 500 nM.

For `Cc1sc2c(c1C)C(c1ccc(N3CCC(O)(CN4CCN(c5cc(F)c([C@H]6c7ccc(O)cc7CC[C@H]6c6ccccc6)cc5F)CC4)CC3)cc1F)=N[C@@H](C)c1nnc(C)n1-2` [III-303], which GI50 is on record?
The GI50 was 50 to 500 nM.

Which GI50 does the source give for `Cc1sc2c(c1C)C(c1ccc(N3CCC(O)(CN4CCN(c5cc(F)c([C@@H]6c7ccc(O)cc7CC[C@@H]6c6ccccc6)cc5F)CC4)CC3)cc1F)=N[C@@H](C)c1nnc(C)n1-2` [III-304] here?
The GI50 was < 50 nM.

`Cc1sc2c(c1C)C(c1ccc(N3CCC(O)(CN4CCN(c5ccc([C@@H]6c7ccc(O)cc7CC[C@@H]6c6ccc(F)cc6)c(Cl)c5)CC4)CC3)cc1)=N[C@@H](C)c1nnc(C)n1-2` [III-305] was tested. Which GI50 did it give?
Its GI50 is < 50 nM.

How did the GI50 turn out when `Cc1sc2c(c1C)C(c1ccc(N3CCC(O)(CN4CCN(c5ccc([C@H]6c7ccc(O)cc7CC[C@H]6c6ccc(F)cc6)c(Cl)c5)CC4)CC3)cc1)=N[C@@H](C)c1nnc(C)n1-2` [III-306] was run?
The GI50 was 50 to 500 nM.

For `COc1cc(N2CCN(CC3(O)CCN(c4ccc(C5=N[C@@H](C)c6nnc(C)n6-c6sc(C)c(C)c65)cc4)CC3)CC2)ccc1[C@H]1c2ccc(O)cc2CC[C@H]1c1cccc(F)c1` [III-309], which GI50 is on record?
The GI50 was 50 to 500 nM.

`COc1cc(N2CCN(CC3(O)CCN(c4ccc(C5=N[C@@H](C)c6nnc(C)n6-c6sc(C)c(C)c65)cc4)CC3)CC2)ccc1[C@@H]1c2ccc(O)cc2CC[C@@H]1c1cccc(F)c1` [III-310] was tested. Which GI50 did it give?
The GI50 was < 50 nM.

How did the GI50 turn out when `Cc1sc2c(c1C)C(c1ccc(N3CCC(CN4CCN(c5cc(F)c([C@@H]6c7ccc(O)cc7CC[C@@H]6c6ccccc6)cc5F)CC4)CC3)cc1)=N[C@@H](C)c1nnc(C)n1-2` [III-317] was run?
Its GI50 is < 50 nM.

`Cc1sc2c(c1C)C(c1ccc(N3CCC(CN4CCN(c5cc(F)c([C@H]6c7ccc(O)cc7CC[C@H]6c6ccccc6)cc5F)CC4)CC3)cc1)=N[C@@H](C)c1nnc(C)n1-2` [III-318] was tested. Which GI50 did it give?
The GI50 was 50 to 500 nM.

These compounds were tested on T-Rex 293 cells lacking increased expression of estrogen receptor alpha protein (assay: Cellular growth inhibition assay, T-Rex 293 cells, (−) doxycycline). Conditions: T-REx-293, 72 h, Table 7-A; T-Rex 293 cells without doxycycline (lacking increased ERα expression); 72 hours; CellTiter-Glo; read-out: (−) Dox GI50.
Assay type: cell-based
Outline: as §1

How did the GI50 turn out when `Cc1sc2c(c1C)C(c1ccc(N3CCC(O)(CN4CCN(c5ccc([C@@H]6c7ccc(O)cc7CC[C@@H]6c6ccc(F)cc6)cc5Cl)CC4)CC3)cc1)=N[C@@H](C)c1nnc(C)n1-2` [III-302] was run?
Its GI50 is 500 to 2500 nM.

How did the GI50 turn out when `Cc1sc2c(c1C)C(c1ccc(N3CCC(O)(CN4CCN(c5cc(F)c([C@H]6c7ccc(O)cc7CC[C@H]6c6ccccc6)cc5F)CC4)CC3)cc1F)=N[C@@H](C)c1nnc(C)n1-2` [III-303] was run?
The GI50 was 50 to 500 nM.

How did the GI50 turn out when `Cc1sc2c(c1C)C(c1ccc(N3CCC(O)(CN4CCN(c5cc(F)c([C@@H]6c7ccc(O)cc7CC[C@@H]6c6ccccc6)cc5F)CC4)CC3)cc1F)=N[C@@H](C)c1nnc(C)n1-2` [III-304] was run?
The GI50 was 500 to 2500 nM.

How did the GI50 turn out when `Cc1sc2c(c1C)C(c1ccc(N3CCC(O)(CN4CCN(c5ccc([C@@H]6c7ccc(O)cc7CC[C@@H]6c6ccc(F)cc6)c(Cl)c5)CC4)CC3)cc1)=N[C@@H](C)c1nnc(C)n1-2` [III-305] was run?
The GI50 was 500 to 2500 nM.

Which GI50 does the source give for `Cc1sc2c(c1C)C(c1ccc(N3CCC(O)(CN4CCN(c5ccc([C@H]6c7ccc(O)cc7CC[C@H]6c6ccc(F)cc6)c(Cl)c5)CC4)CC3)cc1)=N[C@@H](C)c1nnc(C)n1-2` [III-306] here?
Its GI50 is 500 to 2500 nM.

With `COc1cc(N2CCN(CC3(O)CCN(c4ccc(C5=N[C@@H](C)c6nnc(C)n6-c6sc(C)c(C)c65)cc4)CC3)CC2)ccc1[C@H]1c2ccc(O)cc2CC[C@H]1c1cccc(F)c1` [III-309] as the compound, how does the GI50 read?
Its GI50 is 50 to 500 nM.

For `COc1cc(N2CCN(CC3(O)CCN(c4ccc(C5=N[C@@H](C)c6nnc(C)n6-c6sc(C)c(C)c65)cc4)CC3)CC2)ccc1[C@@H]1c2ccc(O)cc2CC[C@@H]1c1cccc(F)c1` [III-310], which GI50 is on record?
The GI50 was 500 to 2500 nM.

`Cc1sc2c(c1C)C(c1ccc(N3CCC(CN4CCN(c5cc(F)c([C@@H]6c7ccc(O)cc7CC[C@@H]6c6ccccc6)cc5F)CC4)CC3)cc1)=N[C@@H](C)c1nnc(C)n1-2` [III-317] was tested. Which GI50 did it give?
Its GI50 is 50 to 500 nM.

How did the GI50 turn out when `Cc1sc2c(c1C)C(c1ccc(N3CCC(CN4CCN(c5cc(F)c([C@H]6c7ccc(O)cc7CC[C@H]6c6ccccc6)cc5F)CC4)CC3)cc1)=N[C@@H](C)c1nnc(C)n1-2` [III-318] was run?
The GI50 was 50 to 500 nM.
